Results from article PMC4933878 (2016).

Tested on: c-myc pu22 DNA (c-myc G-quadruplex DNA) (DNA, G4) TGGGGAGGGTGGGGAGGGTGGGGAAGG
Assay: UV-vis absorption titration (hypochromism)
Details: 100 mM KCl; Tris-HCl, pH 7.2; 20 μM compound; hypochromism MLCT 14.6%, IL 38.9%; constant not given

With C(#Cc1ccc(-c2nc3c4cccnc4c4ncccc4c3[nH]2)cc1)c1ccccc1.[Ru+2].c1ccc(-c2ccccn2)nc1.c1ccc(-c2ccccn2)nc1 the binding was “yes”.
